Our source for the TGI and GI50 values is PubChem BioAssay (NCI).

Values joined by “and” are separate entries in the source; they are usually repeats but may differ in a detail not shown here. Equal values may be shown once.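 Cells were grown in 96-well plates and exposed to each compound for 48 hours at five concentrations; endpoints were interpolated linearly between bracketing concentrations, or set to the highest concentration if not reached. At the GI50, growth is halved. TGI: concentration producing complete growth inhibition.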 A value given as a limit tells only on which side of the number the result lay.

Common to all, as to assay: NCI anticancer screen, dose series, 48 h
Experiment [1] concerns MDA-N.
For experiment [2], the system named is SNB-78 CNS.
Experiment [3] has as its system HOP-18 NSCLC.
Experiment [4] relates to LXFL 529 NSCLC.
Experiment [5] has as its system XF 498 CNS.
The test system of experiment [6] is DMS 114 small cell lung.
The test system of experiment [7] is M19-MEL melanoma.
In experiment [8] the test system is DMS 273 small cell lung.
Experiment [9] deals with RXF-631 renal.

Consider `CS(=O)(=O)OCC1OC(n2ccc(NC(=O)c3ccccc3)nc2=O)CC1OS(C)(=O)=O` (stereo not given), for which the TGI in experiment [1] is over 100 µM.

On to `[Cl][Sn]([Cl])([c]1ccccc1)[c]1ccccc1`, for which the GI50 is 9.33 µM in [2]; 17.9 µM in [3]; 1.53 µM in experiment [4]; 2.58 µM in experiment [5]; 2.67 µM in experiment [6]; 19.5 µM in experiment [7]. The TGI is 56.7 µM in [2]; 31.8 µM in experiment [3]; 2.93 µM in [4]; 6.21 µM in experiment [5]; over 100 µM in experiment [6]; 68.6 µM in experiment [7].

With `CC(=O)N1c2ccccc2C2=CC3C4C(=O)N(c5ccccc5)C(=O)C4C21C1C(=O)N(c2ccccc2)C(=O)C31` (stereo not given), the TGI was over 100 µM in [2]; over 100 µM in [3]; over 100 µM in experiment [4]; 76.8 µM in [5]; 44.1 µM in [6].

For the molecule `CCN(CC)CCCn1cnc2ncccc2c1=O`, the TGI in experiment [8], in experiment [2], in experiment [4], in experiment [6] and in experiment [7] was over 100 µM each time.

Regarding `CCCCCCCC(=O)NCC(O)CNC(=O)CCCCCCC`, the TGI in [8], in [2], in experiment [3], in experiment [4], in experiment [5] and in experiment [6] was over 100 µM throughout. The molecule further returned a TGI in [7] of over 100 µM.

Consider `O=C(CCC(=O)Nc1cccc(Cl)c1)CC(=O)c1ccc(F)cc1`, for which the TGI in experiment [8], in experiment [2] and in [5] was over 100 µM in each case.

With `CN(C)CCN(C)CC1COC(C)(C)O1` (stereo not given), the TGI in [8], in experiment [2], in experiment [3], in [4], in experiment [5] and in experiment [7] was over 100 µM in each case.

As for `O=C(O)C1=CCCc2ccc3ccccc3c21`, the TGI in [8], in experiment [2], in experiment [3], in experiment [4], in [9] and in [5] was over 100 µM throughout. In addition, the TGI in experiment [6] and in [7] was over 100 µM throughout.

Regarding `CCC1C(=O)OCc2c1cc1n(c2=O)Cc2cc3ccccc3nc2-1` (stereo not given), the TGI in experiment [1] was over 100 µM.

`Cn1c2c(c3ccccc31)CCN(CCN1CCN(c3ccccc3)CC1)C2=O`: the TGI in experiment [8] was over 100 µM; in [3], over 100 µM; in [4] it was over 100 µM; in experiment [9] it was over 100 µM; in [5] it was 61.3 µM; in experiment [6] it was over 100 µM.

For the molecule `COc1ccc(NC(=O)CC(=O)N2N=C(N(CCC#N)c3ccccc3Cl)CC2c2ccccc2)cc1` (stereo not given), the TGI in [8], in experiment [2], in [3], in experiment [4], in experiment [9] and in [5] was over 100 µM each time. Also, the TGI in [6] and in [7] was over 100 µM each time.

Turning to `Nc1nc2sc3ccccc3c(=O)n2n1`, the TGI in experiment [8], in experiment [2], in [3], in experiment [4], in experiment [5] and in experiment [6] was over 100 µM in each case.

For `CC[O-].CC[O-].O=C([CH-]C(=O)c1cccnc1)c1ccccc1.O=C([CH-]C(=O)c1cccnc1)c1ccccc1.[Ti+4]`, the GI50 is 68.6 µM in [8]; over 100 µM in experiment [2]; 43.6 µM in experiment [4]; 25.9 µM in experiment [9]; 32.8 µM in experiment [5]; over 100 µM in [6]. In addition, the GI50 in [7] is 77.7 µM. In addition, the TGI in [8] is over 100 µM; in experiment [2], over 100 µM; in experiment [4] it was over 100 µM; in experiment [9], over 100 µM; in experiment [5], 90.6 µM; in experiment [6] it was over 100 µM. In experiment [7], this molecule showed a TGI of over 100 µM.

`Cc1cc(Cl)cc2c(N=Nc3ccccc3[N+](=O)[O-])c(O)[nH]c12` displayed a TGI in experiment [1] of over 100 µM.

Turning to `COC(=O)C1CCC(Nc2ccc(C)cc2C)=N1` (stereo not given), the TGI in experiment [8], in [2], in experiment [3], in experiment [4], in [9] and in [5] was over 100 µM each time. Besides, the TGI in [7] was over 100 µM.

On to `CCOC(=O)c1c(-c2ccccc2)oc(-c2ccccc2)c1C(=O)OCC`, for which the TGI in experiment [8], in [2], in experiment [3], in [4], in experiment [5] and in experiment [6] was over 100 µM each time. Also, the TGI in experiment [7] is over 100 µM.

In the case of `Cc1noc2cccc(OCc3ccccc3)c12`, the TGI in [8], in experiment [2], in experiment [3], in [4], in [9] and in [5] was over 100 µM throughout. Besides, the TGI in experiment [6] and in [7] was over 100 µM in each case.

Turning to `COc1ccc2c(c1O)C13CCN(C)C(C2)C1CCC1(C3)OCCO1` (stereo not given), the TGI in experiment [1] was over 100 µM.

Turning to `O=S(=O)(N/N=C/c1ccc(Cl)c(Cl)c1)c1ccccc1`, the TGI in [8] is over 100 µM; in [2], over 100 µM; in experiment [3], over 100 µM; in experiment [4] it was over 100 µM; in experiment [5] it was over 100 µM; in experiment [6], 87 µM. This molecule gave a TGI in experiment [7] of over 100 µM.

Turning to `S=C(N/N=C(/c1ccccc1)c1ccccn1)N1CCCCC1`, in [1], the GI50 was 0.118 µM; the TGI is 2.26 µM and 2.62 µM.

In experiment [3], `O=C(C=Nc1ccccc1C(=O)[O-])c1cccs1.O=C(C=Nc1ccccc1C(=O)[O-])c1cccs1.[Co+2]` gave a TGI of over 100 µM. Also, in experiment [7], the GI50 is over 100 µM and the TGI is over 100 µM.

As to `Cc1oc2c(C)c3oc(=O)cc(C)c3cc2c1CNC(=O)[C@@H]1OCCOCCOCCOCCOCCOC1C(=O)O` (stereo not given in full), the TGI is over 100 µM in [8]; over 100 µM in experiment [2]; over 100 µM in experiment [3]; 27.7 µM in experiment [4]; over 100 µM in experiment [9]; over 100 µM in experiment [6]. The same molecule gave a TGI in experiment [7] of over 100 µM.

Take `CCC[CH2][Sn]([CH2]CCC)([O]C(=O)c1cc(F)ccc1F)[O][Sn]([CH2]CCC)([CH2]CCC)[O]C(=O)c1cc(F)ccc1F`: the GI50 in [8] was 0.331 µM; in experiment [2], 0.222 µM; in experiment [3], 0.654 µM; in experiment [4], 0.0185 µM; in experiment [1], 0.239 µM; in experiment [5] it was 0.16 µM. The GI50 is 0.0832 µM in [6] and 0.0854 µM in experiment [7]. Also, the TGI in experiment [8] was found to be 1.56 µM; in experiment [2], 1.59 µM; in experiment [3] it was 1.67 µM; in experiment [4], 0.155 µM; in experiment [1], 1.46 µM; in [5], 0.305 µM. Also, the figures for the TGI in [6] and in experiment [7] were 0.25 µM and 0.459 µM, respectively.

In experiment [1], `Nc1cc(C(=O)O)[nH]c(=O)n1` showed a TGI of over 100 µM.

In the case of `CCOC(=O)/C(=N\OC)C(O)C(F)(F)F` (stereo not given), in [1], the TGI was over 100 µM.

With `Cc1ccccc1C1=[N+]([O-])c2ccccc2C1=O`, the TGI in experiment [3] turned out to be 54.4 µM; in [4], 28.3 µM; in [9], 42.8 µM; in [5], 31.3 µM; in experiment [6], 27.4 µM; in experiment [7], 28.5 µM.

As for `COC(c1cccc(C(O)(C(F)(F)F)C(F)(F)F)c1)(C(F)(F)F)C(F)(F)F`, the TGI in experiment [8] is 34.8 µM; in [3], 32.1 µM; in [4] it was 32 µM; in experiment [5], 28.2 µM; in [6], 32.6 µM; in [7] it was 30.5 µM.

With `COc1ccc2c(c1)C(=O)N1CCOC1C2C(=O)O` (stereo not given), the TGI was 11.2 µM in experiment [8]; over 100 µM in experiment [2]; over 100 µM in experiment [3]; over 100 µM in experiment [4]; over 100 µM in [9]; over 100 µM in experiment [5]. Besides, the TGI in [6] and in [7] was over 100 µM in each case.

For the molecule `CC(=O)O[C@@]12CO[C@@H]1C[C@H](O)[C@@]1(C)C(=O)[C@H](O)C3=C(C)[C@@H](OC(=O)[C@H](O)[C@@H](NC(=O)OC(C)(C)C)c4ccccc4)C[C@@](O)([C@@H](OC(=O)c4ccccc4)[C@H]21)C3(C)C`, the GI50 in experiment [8] is 0.0112 µM and 0.0271 µM; in [4], 0.0356 µM and 0.0257 µM; in experiment [9], 0.297 µM; in experiment [5], 0.0397 µM and 0.0317 µM; in [6], 0.00368 µM and 0.00371 µM; in experiment [7], 0.0114 µM. The TGI in experiment [8] is 17.4 µM; in [3], 74.5 µM; in experiment [4], over 100 µM; in experiment [9] it was over 56.7 µM; in experiment [6], 0.0525 µM and 0.0223 µM; in experiment [7], 21.2 µM.

As for `O=C(Nc1ccccc1)c1nn(-c2cc(S(=O)(=O)O)c([N+](=O)[O-])cc2Cl)[n+](-c2cc(S(=O)(=O)[O-])c([N+](=O)[O-])cc2Cl)n1`, in experiment [1], the TGI was over 100 µM.

In experiment [1], `Cc1nc(-c2ccccc2)c(Cc2ccccc2O)c(=O)[nH]1` showed a TGI of over 100 µM.

For `CCCOC(=O)C1CCC(=O)N1C(=O)C(C)Cl` (stereo not given), the TGI in experiment [8], in [2], in experiment [3], in experiment [4], in experiment [5] and in [6] was over 100 µM each time. The same molecule yielded a TGI in [7] of over 100 µM.

With `CC1(Cl)CC2OC3(Br)C=CC(C)(O)C2(CC1Br)C3(C)C` (stereo not given), the TGI in experiment [8], in [2], in [3], in experiment [4], in experiment [6] and in experiment [7] was over 100 µM each time.

As for `CC1OC(n2ccc(=O)[nH]c2=O)C=C(OC(=O)c2ccccc2)C1=O` (stereo not given), the TGI in [8], in experiment [2], in [3], in experiment [5] and in experiment [7] was over 100 µM throughout.
